Experimental findings from ChEMBL document CHEMBL1201861, “Genomics of Drug Sensitity in Cancer screening data, Wellcome Trust Sanger Institute” are described below.

In the first experiment the test system is COLO-668. The experiment is described as follows: cells. Particulars: Homo sapiens, COLO-668. Type of experiment: functional, cell-based, Homo sapiens.
Description: SANGER: Inhibition of human COLO-668 cell growth in a cell viability assay.
On to `C=CC(=O)N1CCCC(Nc2nc(Nc3ccc(N(C)C(=O)CC)cc3)nc3[nH]cnc23)C1` (centres undefined), for which the IC50 (usually the point on the concentration scale where inhibition reaches its midpoint) is more than 10.2 µM.

Another experiment deals with EW-18. The experiment is described as follows: cells. The format is functional, cell-based, Homo sapiens. Particulars: Homo sapiens, EW-18; read-out: IC50.
Description: SANGER: Inhibition of human EW-18 cell growth in a cell viability assay.
For the molecule `C=CC(=O)N1CCCC(Nc2nc(Nc3ccc(N(C)C(=O)CC)cc3)nc3[nH]cnc23)C1` (centres undefined), the IC50 is more than 10.2 µM.

The test system of another experiment is NOMO-1. The experiment is described as follows: cells. The format is functional, cell-based, Homo sapiens. The following applies: Homo sapiens, NOMO-1.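 Note: growth inhibition of human NOMO-1 cells measured by a cell viability assay.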
Description: SANGER: Inhibition of human NOMO-1 cell growth in a cell viability assay.
The molecule `C=CC(=O)N1CCCC(Nc2nc(Nc3ccc(N(C)C(=O)CC)cc3)nc3[nH]cnc23)C1` (centres undefined) showed an IC50 of more than 10.2 µM.

Another experiment deals with NCI-H69. The experiment is described as follows: cells. The format is functional, cell-based, Homo sapiens. The following applies: Homo sapiens, NCI-H69.
Description: SANGER: Inhibition of human NCI-H69 cell growth in a cell viability assay.
Molecule `C=CC(=O)N1CCCC(Nc2nc(Nc3ccc(N(C)C(=O)CC)cc3)nc3[nH]cnc23)C1` (centres undefined) had an IC50 of more than 10.2 µM.

For the next experiment, the system named is COLO-829. As to the kind of experiment: cells. The following applies: Homo sapiens, COLO-829. Type of experiment: functional, cell-based, Homo sapiens.
Description: SANGER: Inhibition of human COLO-829 cell growth in a cell viability assay.
Turning to `C=CC(=O)N1CCCC(Nc2nc(Nc3ccc(N(C)C(=O)CC)cc3)nc3[nH]cnc23)C1` (centres undefined), the IC50 was more than 10.2 µM.

The subject of the next experiment is MFM-223. As to the kind of experiment: cells. Type of experiment: functional, cell-based, Homo sapiens. Particulars: Homo sapiens, MFM-223.
Description: SANGER: Inhibition of human MFM-223 cell growth in a cell viability assay.
As to `C=CC(=O)N1CCCC(Nc2nc(Nc3ccc(N(C)C(=O)CC)cc3)nc3[nH]cnc23)C1` (centres undefined), the IC50 is more than 10.2 µM.

Another experiment deals with A4-Fuk. The experiment is described as follows: cells. Type of experiment: functional, cell-based, Homo sapiens. Particulars: Homo sapiens, A4-Fuk.
Description: SANGER: Inhibition of human A4-Fuk cell growth in a cell viability assay.
In turn, `C=CC(=O)N1CCCC(Nc2nc(Nc3ccc(N(C)C(=O)CC)cc3)nc3[nH]cnc23)C1` (centres undefined) showed a half-maximal inhibitory concentration (IC50) of more than 10.2 µM.

Another experiment has as its system CTV-1. The experiment is described as follows: cells. The format is functional, cell-based, Homo sapiens. The following applies: Homo sapiens, CTV-1.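 Note: growth inhibition of the cell line, read out with a cell viability assay.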
Description: SANGER: Inhibition of human CTV-1 cell growth in a cell viability assay.
In the case of `C=CC(=O)N1CCCC(Nc2nc(Nc3ccc(N(C)C(=O)CC)cc3)nc3[nH]cnc23)C1` (centres undefined), the IC50 was more than 10.2 µM.

In another experiment the test system is SK-NEP-1. The experiment is described as follows: cells. The format is functional, cell-based, Homo sapiens. Particulars: Homo sapiens, SK-NEP-1.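 Note: growth inhibition of human SK-NEP-1 cells, read out by a cell viability assay.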
Description: SANGER: Inhibition of human SK-NEP-1 cell growth in a cell viability assay.
In turn, `C=CC(=O)N1CCCC(Nc2nc(Nc3ccc(N(C)C(=O)CC)cc3)nc3[nH]cnc23)C1` (centres undefined) came in with an IC50 of more than 10.2 µM.

The test system of another experiment is SW872. The experiment is described as follows: cells. The format is functional, cell-based, Homo sapiens. Particulars: Homo sapiens, SW872.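 Note: growth inhibition of SW872 cells, read out by a viability assay.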
Description: SANGER: Inhibition of human SW872 cell growth in a cell viability assay.
With `C=CC(=O)N1CCCC(Nc2nc(Nc3ccc(N(C)C(=O)CC)cc3)nc3[nH]cnc23)C1` (centres undefined), the IC50 was more than 10.2 µM.

A further experiment has as its system COLO-800. The experiment is described as follows: cells. Type of experiment: functional, cell-based, Homo sapiens. The following applies: Homo sapiens, COLO-800.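 Note: growth inhibition of COLO-800 cells, read out with a cell viability assay.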
Description: SANGER: Inhibition of human COLO-800 cell growth in a cell viability assay.
The molecule `C=CC(=O)N1CCCC(Nc2nc(Nc3ccc(N(C)C(=O)CC)cc3)nc3[nH]cnc23)C1` (centres undefined) returned an IC50 of more than 10.2 µM.

Another experiment deals with QIMR-WIL. The experiment is described as follows: cells. The format is functional, cell-based, Homo sapiens. The following applies: Homo sapiens, QIMR-WIL.
Description: SANGER: Inhibition of human QIMR-WIL cell growth in a cell viability assay.
On to `C=CC(=O)N1CCCC(Nc2nc(Nc3ccc(N(C)C(=O)CC)cc3)nc3[nH]cnc23)C1` (centres undefined), for which the IC50 is more than 10.2 µM.

For the next experiment, the system named is HCC1187. The experiment is described as follows: cells. Type of experiment: functional, cell-based, Homo sapiens. The following applies: Homo sapiens, HCC1187.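 Note: growth inhibition of HCC1187 cells, read out with a cell viability assay.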
Description: SANGER: Inhibition of human HCC1187 cell growth in a cell viability assay.
For the molecule `C=CC(=O)N1CCCC(Nc2nc(Nc3ccc(N(C)C(=O)CC)cc3)nc3[nH]cnc23)C1` (centres undefined), the IC50 is more than 10.2 µM.

The next experiment has as its system SCH. The experiment is described as follows: cells. The following applies: Homo sapiens, SCH. Type of experiment: functional, cell-based, Homo sapiens.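 Note: growth inhibition of human SCH cells, read out in a cell viability assay.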
Description: SANGER: Inhibition of human SCH cell growth in a cell viability assay.
The molecule `C=CC(=O)N1CCCC(Nc2nc(Nc3ccc(N(C)C(=O)CC)cc3)nc3[nH]cnc23)C1` (centres undefined) gave a half-maximal inhibitory concentration (IC50) of more than 10.2 µM.

For another experiment, the system named is NB10. The experiment is described as follows: cells. Type of experiment: functional, cell-based, Homo sapiens. Particulars: Homo sapiens, NB10.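 Note: growth inhibition of NB10 cells, read out by a cell viability assay.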
Description: SANGER: Inhibition of human NB10 cell growth in a cell viability assay.
Molecule `C=CC(=O)N1CCCC(Nc2nc(Nc3ccc(N(C)C(=O)CC)cc3)nc3[nH]cnc23)C1` (centres undefined) came in with an IC50 of more than 10.2 µM.

A further experiment relates to HCC2218. As to the kind of experiment: cells. The following applies: Homo sapiens, HCC2218. Type of experiment: functional, cell-based, Homo sapiens.
Description: SANGER: Inhibition of human HCC2218 cell growth in a cell viability assay.
In turn, `C=CC(=O)N1CCCC(Nc2nc(Nc3ccc(N(C)C(=O)CC)cc3)nc3[nH]cnc23)C1` (centres undefined) had an IC50 of more than 10.2 µM.

The next experiment deals with RH-1. As to the kind of experiment: cells. The format is functional, cell-based, Homo sapiens. The following applies: Homo sapiens, RH-1.
Description: SANGER: Inhibition of human RH-1 cell growth in a cell viability assay.
For `C=CC(=O)N1CCCC(Nc2nc(Nc3ccc(N(C)C(=O)CC)cc3)nc3[nH]cnc23)C1` (centres undefined), the IC50 was more than 10.2 µM.

A further experiment has as its system KNS-42. The experiment is described as follows: cells. Type of experiment: functional, cell-based. The following applies: Homo sapiens.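 Note: growth inhibition of KNS-42 cells, read out with a cell viability assay.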
Description: SANGER: Inhibition of human KNS-42 cell growth in a cell viability assay.
The molecule `C=CC(=O)N1CCCC(Nc2nc(Nc3ccc(N(C)C(=O)CC)cc3)nc3[nH]cnc23)C1` (centres undefined) displayed an IC50 of more than 10.2 µM.

The subject of another experiment is LB1047-RCC. The experiment is described as follows: cells. Type of experiment: functional, cell-based, Homo sapiens. Particulars: Homo sapiens, LB1047-RCC.
Description: SANGER: Inhibition of human LB1047-RCC cell growth in a cell viability assay.
The molecule `C=CC(=O)N1CCCC(Nc2nc(Nc3ccc(N(C)C(=O)CC)cc3)nc3[nH]cnc23)C1` (centres undefined) returned an IC50 of more than 10.2 µM.

Another experiment concerns EKVX. As to the kind of experiment: cells. Particulars: Homo sapiens, EKVX. The format is functional, cell-based, Homo sapiens.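 Note: growth inhibition of human EKVX cells, read out with a cell viability assay.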
Description: SANGER: Inhibition of human EKVX cell growth in a cell viability assay.
In the case of `C=CC(=O)N1CCCC(Nc2nc(Nc3ccc(N(C)C(=O)CC)cc3)nc3[nH]cnc23)C1` (centres undefined), the IC50 is more than 10.2 µM.

The next experiment has as its system ATN-1. As to the kind of experiment: cells. The format is functional, cell-based, Homo sapiens. The following applies: Homo sapiens, ATN-1.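 Note: growth inhibition of human ATN-1 cells, read out with a cell viability assay.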
Description: SANGER: Inhibition of human ATN-1 cell growth in a cell viability assay.
For `C=CC(=O)N1CCCC(Nc2nc(Nc3ccc(N(C)C(=O)CC)cc3)nc3[nH]cnc23)C1` (centres undefined), the IC50 is more than 10.2 µM.

For the next experiment, the system named is K562. As to the kind of experiment: cells. The format is functional, cell-based, Homo sapiens. The following applies: Homo sapiens, K562.
Description: SANGER: Inhibition of human K-562 cell growth in a cell viability assay.
The molecule `C=CC(=O)N1CCCC(Nc2nc(Nc3ccc(N(C)C(=O)CC)cc3)nc3[nH]cnc23)C1` (centres undefined) gave an IC50 of more than 10.2 µM.

In another experiment the test system is LU-139. The experiment is described as follows: cells. The format is functional, cell-based, Homo sapiens. Particulars: Homo sapiens, LU-139.
Description: SANGER: Inhibition of human LU-139 cell growth in a cell viability assay.
With `C=CC(=O)N1CCCC(Nc2nc(Nc3ccc(N(C)C(=O)CC)cc3)nc3[nH]cnc23)C1` (centres undefined), the IC50 is more than 10.2 µM.

The next experiment deals with CAS-1. The experiment is described as follows: cells. Type of experiment: functional, cell-based, Homo sapiens. The following applies: Homo sapiens, CAS-1.
Description: SANGER: Inhibition of human CAS-1 cell growth in a cell viability assay.
Consider `C=CC(=O)N1CCCC(Nc2nc(Nc3ccc(N(C)C(=O)CC)cc3)nc3[nH]cnc23)C1` (centres undefined), for which the IC50 is more than 10.2 µM.
